One assay has as its target T1, RARβ (Homo sapiens, UniProt P10826).
T1 construct: made in house; used as extract protein
T1 sequence (P10826 1-455): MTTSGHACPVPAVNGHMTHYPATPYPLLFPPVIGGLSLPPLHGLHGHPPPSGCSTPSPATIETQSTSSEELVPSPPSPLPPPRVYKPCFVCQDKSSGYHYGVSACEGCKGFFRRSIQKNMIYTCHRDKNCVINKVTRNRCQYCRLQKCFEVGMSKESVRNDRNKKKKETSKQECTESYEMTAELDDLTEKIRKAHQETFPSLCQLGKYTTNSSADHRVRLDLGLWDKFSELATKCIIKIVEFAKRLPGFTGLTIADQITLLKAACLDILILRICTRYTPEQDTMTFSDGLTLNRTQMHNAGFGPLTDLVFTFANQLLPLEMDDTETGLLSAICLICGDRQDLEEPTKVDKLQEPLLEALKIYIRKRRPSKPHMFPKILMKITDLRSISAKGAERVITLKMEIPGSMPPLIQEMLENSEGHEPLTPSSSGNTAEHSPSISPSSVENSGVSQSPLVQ
The assay is described as follows: Ligand binding assay. The following applies: receptor expressed in Baculovirus; competition with [3H] retinoic acid; Cheng-Prusoff from IC50. As to the method:
(§1) A holoreceptor transactivation assay and a ligand binding assay which measure the ability of the compounds of the invention to bind to the several retinoid receptor subtypes, respectively, are described in published PCT Application No. WO WO93/11755 (particularly on pages 30-33 and 37-41) published on Jun. 24, 1993, the specification of which is also incorporated herein by reference. A description of the ligand binding assay is also provided below.
(§2) All binding assays were performed in a similar fashion. All six receptor types were derived from the expressed receptor type (RAR α, β, τ and RXR α, β, τ) expressed in Baculovirus. Stock solutions of all compounds were prepared as 10 mM ethanol solutions and serial dilutions carried out into 1:1 DMSO; ethanol. Assay buffers consisted of the following for all six receptor assays: 8% glycerol, 120 mM KCl, 8 mM Tris, 5 mM CHAPS 4 mM DTT and 0.24 mM PMSF, pH-7.4@room temperature.
(§3) All receptor biding assays were performed in the same manner. The final assay volume was 250 μl and contained from […] of extract protein depending on receptor being assayed along with 5 nM of [^3H) alltrans retinoic acid or 10 nM [^3H) 9-cis retinoic acid and varying concentrations of competing ligand at concentrations that ranged from 0-10^−5 M. The assays were formatted for a 96 well minitube system. Incubations were carried out at 4° C. until equilibrium was achieved. Non-specific binding was defined as that binding remaining in the presence of 1000 nM of the appropriate unlabeled retinoic acid isomer. At the end of the incubation period, 50 μl of 6.25% hydroxyapitite was added in the appropriate wash buffer. The wash buffer consisted of 100 mM KCl, 10 mM Tris and either 5 mM CHAPS (RXR α, β, τ) or 0.5% Triton X-100 (RAR α, β, τ). The mixture was vortexed and incubated for 10 minutes at 4° C., centrifuged and the supernatant removed. The hydroxyapitite was washed three more times with the appropriate wash buffer. The receptor-ligand complex was adsorbed by the hydroxyapitite. The amount of receptor-ligand complex was determined by liquid scintillation counting of hydroxyapitite pellet.
(§4) After correcting for non-specific binding, IC50 values were determined. […] The IC50 value was determined graphically from a loglogit plot of the data. The Kd values were determined by application of the ChengPrussof equation to the IC50 values, the labeled ligand concentration and the Kd of the labeled ligand.
(§5) The results of ligand binding assay are expressed in Kd numbers. (See Cheng et al. Biochemical Pharmacology Vol. 22 pp 3099-3108, expressly incorporated herein by reference.)

Another assay addresses T2, RXRβ (Homo sapiens, UniProt P28702).
T2 construct: made in house; used as extract protein
T2 sequence (P28702 1-533): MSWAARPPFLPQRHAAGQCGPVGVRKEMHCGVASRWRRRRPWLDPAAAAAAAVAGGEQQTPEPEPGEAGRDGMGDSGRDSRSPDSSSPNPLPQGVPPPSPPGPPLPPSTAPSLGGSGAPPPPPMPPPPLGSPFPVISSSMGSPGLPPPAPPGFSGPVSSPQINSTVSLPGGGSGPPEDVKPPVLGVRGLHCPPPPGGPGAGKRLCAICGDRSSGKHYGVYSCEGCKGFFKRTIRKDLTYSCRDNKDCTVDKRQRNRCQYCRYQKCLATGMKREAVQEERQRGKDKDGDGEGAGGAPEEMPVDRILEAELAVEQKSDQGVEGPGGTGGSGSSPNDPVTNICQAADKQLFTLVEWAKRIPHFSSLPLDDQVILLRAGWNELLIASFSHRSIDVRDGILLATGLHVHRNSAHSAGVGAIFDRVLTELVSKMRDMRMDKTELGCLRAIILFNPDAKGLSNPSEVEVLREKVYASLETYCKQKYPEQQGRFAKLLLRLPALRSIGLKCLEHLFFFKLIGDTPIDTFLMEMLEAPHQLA
The assay is described as follows: Ligand binding assay. The conditions noted are these: receptor expressed in Baculovirus; competition with [3H] retinoic acid; Cheng-Prusoff from IC50. The protocol:
as §1, §2, §3, §4, §5

For `CC1(C)CCC(C)(C)c2cc(C(=O)Nc3ccc(C(=O)O)c(F)c3)ccc21` [Compound 2], the Kd is 480 nM on RARβ and above 1000 nM at RXRβ.
With `CC1(C)CCC(C)(C)c2c(Br)cc(C(=O)Nc3ccc(C(=O)O)c(F)c3)cc21` [Compound 6], the Kd at RARβ and on RXRβ was above 1000 nM each time.
With `CC1(C)CCC(C)(C)c2cc(C(=S)Nc3ccc(C(=O)O)cc3)ccc21` [Compound 26], the Kd on RARβ and at RXRβ was above 1000 nM throughout.
For the molecule `Cc1cc(C(=O)Nc2ccc(C(=O)O)c(F)c2)cc2c1OC(C)(C)CC2(C)C` [Compound 22], the Kd at RARβ and on RXRβ was above 1000 nM each time.
Take `CC1(C)CC(C)(C)c2cc(C(=O)Nc3ccc(C(=O)O)c(F)c3)ccc2O1` [Compound 32]: the Kd on RARβ and at RXRβ was above 1000 nM throughout.
For `CC1(C)CC(C)(C)c2cc(C(=O)Nc3ccc(C(=O)O)c(F)c3)cc(Br)c2O1` [Compound 12], the Kd on RARβ and on RXRβ was above 1000 nM throughout.
On to `CC1(C)CCC(C)(C)c2c1cc(C(=O)Nc1cc(F)c(C(=O)O)c(F)c1)c(O)c2Br` [Compound 36], for which the Kd on RARβ and on RXRβ was above 1000 nM throughout.
Consider `CC1(C)CC(C)(C)c2cc(C(=O)Nc3ccc(C(=O)O)c(F)c3)cc(N=[N+]=[N-])c2O1` [Compound 16, 2-Fluoro-4-[(21′,2′,4′,4′-tetramethyl-8′-azidochroman-6′-yl)carbamoyl]benzoic Acid], for which the Kd at RARβ and on RXRβ was above 1000 nM each time.
As to `CC1(C)CC(C)(C)c2cc(C(=O)Nc3ccc(C(=O)O)c(F)c3)cc(C(F)(F)F)c2O1` [Compound 14], the Kd at RARβ and at RXRβ was above 1000 nM each time.
For the molecule `CC1(C)CCC(C)(C)c2cc(C(=O)Nc3cc(F)c(C(=O)O)c(F)c3)ccc21` [Compound 38], the Kd at RARβ and on RXRβ was above 1000 nM throughout.
As for `CC1(C)CCC(C)(C)c2cc(C(=O)Nc3ccc(C(=O)O)cc3)c(F)cc21` [Compound 4], the dissociation constant Kd at RARβ was 23 nM; at RXRβ it was above 1000 nM.
For `CC1(C)CC(C)(C)c2cc(C(=O)Nc3cc(F)c(C(=O)O)c(F)c3)cc(C(F)(F)F)c2O1` [Compound 18, 2,6-Difluoro-4-[(2′,2′,4′,4′-tetramethyl-8′-trifluoromethylchroman-6′-yl)carbamoyl]benzoic Acid], in that order: above 1000 nM and above 1000 nM.
Regarding `CC1(C)CCC(C)(C)c2cc(C(=O)Nc3ccc(C(=O)O)c(F)c3)c(O)cc21` [Compound 8], the Kd at RARβ and on RXRβ was above 1000 nM each time.
Take `CC1(C)CC(C)(C)c2cc(C(=O)Nc3ccc(C(=O)O)c(F)c3)cc(I)c2O1` [Compound 20]: the Kd at RARβ and on RXRβ was above 1000 nM throughout.

As a reminder, the Kd is a measure of binding affinity in units of concentration. Low readings indicate a tighter complex, high ones a looser complex.

The record behind these values is patent US6342602B1, “Aryl or heteroaryl amides of tetrahydronaphthalene, chroman, thichroman and 1,2,3,4-tetrahydroquinolinecarboxlic acids, having an electron withdrawing substituent in the aromatic or heteroaromatic moiety, having retinoid-like biological activity” (Allergan Sales, Inc., priority 1995, dated 2002).
